Test [1] relates to HL-60. Description: Cytotoxicity, annexin V/7-AAD viability by flow cytometry, HL-60. In kind it is cell-based, human. The following applies: HL-60, 48 hours, drug range tested 1.25-160 μM. As for the experimental part:
(§1) In order to assess the structure-activity relationship of DHL and its derivatives, DHL and its derivatives were evaluated against eight human leukemia cell lines. Cell lines were cultured in Iscove's Modified Dulbecco's Medium (IMDM) supplemented with 10%˜20% fetal bovine serum (FBS) according to culture conditions indicated by ATCC and 1% penicillin/streptomycin (Pen/Strep) at 37° C. and 5% CO2. The cells were seeded into 96-well plates and kept at a concentration of 0.5 million cells per mL. The samples were treated with DHL, Leucodine, DHL-Morpholine, DHL-Proline, DHL-Piperidine, and PTL at varying concentrations in triplicates. Cell viability was determined after incubating for 48 hours. The cells were stained with annexin V-fluorescein isothiocyanate or phycoeritrine (FITC/PE) and 7-aminoactinomycin (7-AAD) to detect phosphatidylserine exposition and cell permeability, respectively. At least 50,000 events were recorded per condition on either an LSR-II or LSR-Fortessa flow cytometer (BD Biosciences). Data analysis was conducted using FlowJo 9.6 software for Mac OS X (TreeStar). Cells that were negative for annexin V and 7-AAD were scored as viable.
(A flow cytometer gives signals particle by particle.)

The subject of test [2] is U-937. Nature of the test: Cytotoxicity, annexin V/7-AAD viability by flow cytometry, U-937. The class given is cell-based, human. The settings on record: U-937, 48 hours, drug range tested 1.25-160 μM. As for the experimental part:
as §1

Test [3] has as its system Kasumi-1. Description: Cytotoxicity, annexin V/7-AAD viability by flow cytometry, Kasumi-1. The following applies: Kasumi-1, 48 hours, drug range tested 1.25-160 μM. The class given is cell-based, human. As for the experimental part: as §1
Test [4] has as its system THP-1. Description: Cytotoxicity, annexin V/7-AAD viability by flow cytometry, THP-1. The settings on record: THP-1, 48 hours, drug range tested 1.25-160 μM. In kind it is cell-based, human. How it is done: as §1
Test [5] relates to SNB-75. Description: Single dose tumor cell growth inhibition, CNS Cancer SNB-75. The class given is cell-based, human. The following applies: SNB-75, single dose 10 μM. From the text:
(§2) DHL is cytotoxic to various leukemia, colon cancer, CNS cancer and prostate cancer cell lines.

The test system of test [6] is HSPA1A. Nature of the test: Quantitative PCR of HSPA1A in MOLM-13 or MV-411 cells. In kind it is cell-based. The settings on record: 20 μM, 6 hours, MOLM-13 and MV-411 cells. As for the experimental part:
(FIG. 8A) Graphical representation of the fold changes of HMOX-1 in MOLM-13 cells. Cells were seeded at 0.5 million cells per milliliter and subject to 20 μM of DHL, leucodine, DHL-proline, DHL-piperidine, DHL-morpholine, or parthenolide for 6 hours. RNA was then extracted and quantitative PCR was performed. Experiments were performed in triplicates. Lines represent mean for each specimen, with error bars representing the SD. Fold change was calculated by the delta-delta Ct method. […] (FIG. 8D) Immunoblot for MOLM-13 cells after 6 hours of treatment with either DHL or PTL with 10 or 20 μM. Blot was probed for phospho-p65 and p65 antibodies. Total p65 is shown as the loading control.
(FIG. 9A) Graphical representation of the fold changes of HMOX-1 in MV-411 cells. Cells were seeded at 0.5 million cells per milliliter and subject to 20 μM of DHL, leucodine, DHL-proline, DHL-piperidine, DHL-morpholine, or parthenolide for 6 hours. RNA was then extracted and quantitative PCR was performed. Experiments were performed in triplicates. Lines represent mean for each specimen, with error bars representing the SD. Fold change was calculated by the delta-delta Ct method. (FIG. 9B) Graphical representation of the fold changes of HSPA1A in MV-411 cells, with the same experimental setup and analysis as FIG. […].
To compare these intracellular effects of DHL and its derivatives, quantitative PCR was performed (FIG. 8 and FIG. 9). MOLM-13 or MV-411 cells were seeded at 0.5 million cells per milliliter. Cells were treated for 6 hours with 20 μM of DHL, Leucodine, DHL-Morpholine, DHL-Proline, DHL-Piperidine or PTL, and then collected. Total RNA was extracted using the Qiashredder and Qiagen Rneasy Mini kits. […] Quantitative PCR was performed using probes for HMOX-1 (Hs01110251_m1), HSPA1A (Hs00359163_s1), and NFKB1 (Hs00765730_m1). […] Single-plex real-time PCR was performed in triplicates in a StepOne plus RealTime PCR system and analyzed with the StepOne Software. Fold change was calculated using the 2-DDCT method described by Livak and Schmittgen.

Test [7] relates to HCT-116. Nature of the test: Single dose tumor cell growth inhibition, Colon Cancer HCT-116. In kind it is cell-based, human. The following applies: HCT-116, single dose 10 μM.
Description: as §2

Test [8] concerns normal bone marrow and peripheral blood mononuclear cells. The following applies: 20 μM, 48 hours, AML n=8 vs normal n=4, Mann-Whitney p=0.004. How it is done:
as §1, with “The” for “In order to assess the structure-activity relationship of DHL and its derivatives, DHL and its derivatives were evaluated against eight human leukemia cell lines. Cell lines were cultured in Iscove's Modified Dulbecco's Medium (IMDM) supplemented with 10%˜20% fetal bovine serum (FBS) according to culture conditions indicated by ATCC and 1% penicillin/streptomycin (Pen/Strep) at 37° C. and 5% CO2. The”

Test [9] relates to SW-620. Nature of the test: Single dose tumor cell growth inhibition, Colon Cancer SW-620. The settings on record: SW-620, single dose 10 μM. In kind it is cell-based, human.
Description: as §2

Test [10] relates to CCRF-CEM. Nature of the test: Single dose tumor cell growth inhibition, Leukemia CCRF-CEM. In kind it is cell-based. The settings on record: single dose 10 μM.
Description: as §2

In test [11] the test system is DU-145. Description: Single dose tumor cell growth inhibition, Prostate Cancer DU-145. The class given is cell-based, human. The settings on record: DU-145, single dose 10 μM.
Description: as §2

Test [12] has as its system K-562. Description: Single dose tumor cell growth inhibition, Leukemia K-562. In kind it is cell-based. The following applies: K-562, single dose 10 μM.
Description: as §2

The test system of test [13] is KG-1. Description: Cytotoxicity, annexin V/7-AAD viability by flow cytometry, KG-1. The class given is cell-based, human. The settings on record: KG-1, 48 hours, drug range tested 1.25-160 μM. As for the experimental part:
In order to assess the structure-activity relationship of DHL and its derivatives, DHL and its derivatives were evaluated against eight human leukemia cell lines. Cell lines were cultured in Iscove's Modified Dulbecco's Medium (IMDM) supplemented with 10%˜20% fetal bovine serum (FBS) according to culture conditions indicated by ATCC and 1% penicillin/streptomycin (Pen/Strep) at 37° C. and 5% CO2. […] Cell viability was determined after incubating for 48 hours.

For test [14], the system named is U251. Description: Single dose tumor cell growth inhibition, CNS Cancer U251. In kind it is cell-based, human. The following applies: U251, single dose 10 μM.
Description: as §2

The source of these data is US11059800B2, “Dehydroleucodine derivatives and uses thereof” (Bioventures, LLC, priority 2013, dated 2021).

Regarding `C=C1C(=O)O[C@@H]2[C@H]3C(C)=CC(=O)C3=C(C)CC[C@@H]12` [DHL, dehydroleucodine], the LD50 in test [1] stood at 14.13 µM; in [2] it was 18.95 µM; in [3], 12.92 µM; in [4] it was 16.82 µM; in [13] it was 18.66 µM. For the same compound, the Percent inhibition in [5] amounted to 35.5%; in test [7], 41.3%; in test [9], 30.0%; in [10], 44.9%; in test [11], 44.0%; in test [12] it was 42.0%. The compound further came in with a Percent inhibition in test [14] of 30.0%. Further, the “HSPA1A expression, fold change” value in test [6] is listed as “upregulated”. The “potency to AML cell lines versus normal mononuclear cells” value in test [8] is given as “significantly more potent to the AML cell lines”.
